Test results: patent publication US20250295662A1, “USE OF CDK4/6 INHIBITOR IN TREATMENT OF DEDIFFERENTIATED LIPOSARCOMA” (priority 2022, published 2025)

How the values were obtained:
[1] = system: dedifferentiated liposarcoma; test: Clinical trial in dedifferentiated liposarcoma: efficacy (RECIST 1.1); type: in vivo, human; settings: 180 mg oral once daily
Excerpt: (§1) In this study, a randomized, double-blind, placebo-controlled parallel trial design or a single arm trial design was employed. For the parallel control trial, after all patients signed the informed consent, subjects eligible for enrollment by screening were randomized (1:1) into two groups, i.e., a test group given the capsule of the compound of formula I and a control group given the placebo of the capsule of the compound of formula I, with 4 weeks (28 days) being 1 cycle; for the single arm trial, the administration regimen was the same as that for the test group of the parallel control trial. The efficacy and safety of the capsule of the compound of formula I in the treatment of dedifferentiated liposarcoma was evaluated by the clinical trials of the present disclosure.
(§2) Hemoglobin (HGB) ≥90.0 g/L; • b. Absolute neutrophil count (ANC) ≥1.5×10^9/L; • c. Platelet count (PLT) ≥90×10^9/L; • 2) Biochemical examination criteria: • a. Total bilirubin (TBIL) ≤1.5×upper limit of normal ULN; for patients with Gilbert syndrome, ≤3×ULN; • b. Alanine aminotransferase (ALT) and aspartate aminotransferase (AST) ≤3×ULN. If liver metastasis is accompanied, ALT and AST ≤5×ULN; • c.
(§3) Capsules of the compound of formula (I): strength: 50 mg or 60 mg, provided by Chia Tai Tianqing Pharmaceutical Group Co., Ltd.
(§4) Capsules of the compound of formula (I): 180 mg/each administration (based on the compound of formula (I)), oral administration at fasting, once daily, and 28 consecutive days of administration as one treatment cycle. Placebo of the capsule of the compound of formula (I): 0 mg/each administration (based on the compound of formula (I)), oral administration at fasting, once daily, and 28 consecutive days of administration as one treatment cycle.
Efficacy evaluation criteria: disease state was determined using the RECIST 1.1 criteria.

[2] = system: dedifferentiated liposarcoma; test: Clinical trial in dedifferentiated liposarcoma: safety (NCI-CTC AE 5.0); type: in vivo, human; settings: patients, 28-day cycle
Excerpt: as §1, §2, §3, §4
Safety evaluation criteria: the severity of adverse events was determined using the NCI-CTC AE 5.0 criteria. Adverse event record forms including time of occurrence, severity, relevance to the studied treatment, duration, measures taken, and the final state of the subject should be faithfully filled out during the trial.

[3] = capsules 180 mg oral once daily

Compound: CC(C)c1c2cc(-c3nc(Nc4ccc(N5CCNCC5)cn4)ncc3F)ccc2nn1C [compound of formula (I)]
- PFS, OS, ORR, DCR and DOR of the patients that could be evaluated ([1]; 28-day cycle): all good
- 12-week PFS rate ([1]; 15 subjects who had achieved the evaluation of C3 (12 weeks) efficacy): 60%
- patients who achieved 12-week PFS ([1]; of the 15 subjects evaluated at C3 (12 weeks)): 9 patients
- Gastrointestinal reactions (diarrhea, vomiting, and the like), grade ([2]; capsules 180 mg oral at fasting once daily, mainly this grade, controlled after symptomatic treatment): 1-2 grade
- total incidence rate of TEAEs of grade 3 or above [2, 3]: 9%
- total safety [2, 3]: good
